We go through 1 molecule from patent publication US7251525B2, “Treatment of arrhythmias via inhibition of a multifunctional calcium/calmodulin-dependent protein kinase” (The Board of Trustees of the Leland Stanford Jr. University, priority 1997, dated 2007).

For one test, the system named is protein kinase C (PKC). Conditions: cited from earlier work.
Another test relates to isolated rabbit hearts. Kind of test: Clofilium-induced early afterdepolarizations (EADs) in isolated perfused rabbit hearts. Conditions: pretreatment 0.5 μmol/l. An excerpt:
FIG. 1. […] Data tracings show (from top to bottom) monophasic action potentials (MAP) and left ventricular (LV) pressure. The horizontal lines to the left of the LV pressure tracings (top to bottom) indicate 100 mm Hg and 0 mm Hg levels and 850 ms for panels A and B. All experiments with isolated hearts consisted of 3 periods. A fourth period (experimental period 4) was only added in hearts with EADs. Experimental periods are labeled 1-4 (top of page for both panels A and B). Experimental period 1 measurements represent control and follow >10 min of stabilization. […] Period 3 measurements follow addition of clofilium (7.5 μmole/l) and are taken at EAD initiation or from the longest action potential duration recorded over 30 min. Multiple EADs are seen as 2 oscillations during repolarization on the MAP tracings in experimental period 3. Secondary elevations in LV pressure coinciding with EADs are also seen in the LV pressure tracing in experimental period 3. Experimental period 4 measurements follow EAD termination by addition of nifedipine (10 μmole/l) (shown above) or Cd^2+ (200-500 μmole/l) (data not shown). The horizontal bars indicate the experimental conditions for both panels A and B. (B) Experimental design for isolated rabbit hearts treated with CaM kinase inhibitor KN-93. Arrangement of data tracings is the same as in FIG. 1A (above). Experimental periods are also the same as in FIG. 1A (above) except the active CaM kinase inhibitor KN-93 (0.5 μmole/l) was added 10 min prior to period 2 measurements. […] (C) Continuous record of EAD termination by nifedipine (10 μM) in a heart paced at a cycle length of 1500 ms. Data tracings show MAP with single EADs (top) and LV pressure (bottom). The horizontal lines to the left of the LV pressure tracings indicate 50 mm Hg and 0 mm Hg pressure levels (top to bottom). EAD termination occurs prior to the first discernible decrease (i.e. >10% below baseline) in LV pressure. The vertical arrow marks the first beat of EAD termination.
New Zealand White rabbits of either gender (2.7-3.2 kg) were treated with a heparin bolus (150 U/kg IV) and killed by pentobarbital (50 mg/kg IV) overdose. Hearts were rapidly excised and placed in ice-cold Tyrode's solution for dissection of extracardiac tissue. (Tyrode's solution was composed of (mmol/l) NaCl (130.0), NaHCO3 (20.0), glucose (5.6), KCl (3.0), CaCl2 (2.0), NaH2PO4 (1.8), MgCl24H2O(0.7).) The aorta was cannulated, and perfused retrograde with Tyrode's solution. The perfusate (200 ml) was recirculated through a warming bath and filling pressure was adjusted to 20 cm of H2O. Recirculation time was ˜1 min, based on the time to decrease in left ventricular (LV) pressure following addition of ICa blockers to the recirculating perfusate. Temperature was monitored using a thermistor probe positioned in the right ventricle (RV) and maintained at 33±1° C. by a closed loop feed back system. The perfusate was vigorously bubbled with 95% O2, 5% CO2 and pH was monitored throughout the experiments and adjusted to 7.4 with LN NaOH or HCl, as appropriate. Both atria were removed and drains were placed in the RV and LV apices. An electrocardiogram (ecg) lead was sutured to the LV apex and the proximal pulmonary artery. Epicardial pacing wires were inserted into the RV free wall. Bradycardia was produced by crushing the AV node with a forceps. Epicardial pacing maintained a minimum cycle length of 1500 ms (heart rate of 40 beats/min). Pacing output was adjusted to twice diastolic threshold. In most experiments LV pressure was continuously monitored with a solid state transducer (Camino Laboratories) placed in a saline filled latex balloon. The balloon was secured with a purse string suture around the left atrial remnant and pressure was adjusted to maximize the LV developed pressure (LVDP) keeping the LV end diastolic pressure <10 mmHg. […]

The test system of test [1] is CaM kinase. The settings on record: congener used as experimental control; cited from earlier work.
For test [2], the target named is T1, L-type Ca2+ current (ICa) (Oryctolagus cuniculus, UniProt P15381).
T1 construct: endogenous in cells; host or cells: freshly isolated New Zealand White rabbit ventricular myocytes
T1 sequence (P15381 whole entry, other chains not shown): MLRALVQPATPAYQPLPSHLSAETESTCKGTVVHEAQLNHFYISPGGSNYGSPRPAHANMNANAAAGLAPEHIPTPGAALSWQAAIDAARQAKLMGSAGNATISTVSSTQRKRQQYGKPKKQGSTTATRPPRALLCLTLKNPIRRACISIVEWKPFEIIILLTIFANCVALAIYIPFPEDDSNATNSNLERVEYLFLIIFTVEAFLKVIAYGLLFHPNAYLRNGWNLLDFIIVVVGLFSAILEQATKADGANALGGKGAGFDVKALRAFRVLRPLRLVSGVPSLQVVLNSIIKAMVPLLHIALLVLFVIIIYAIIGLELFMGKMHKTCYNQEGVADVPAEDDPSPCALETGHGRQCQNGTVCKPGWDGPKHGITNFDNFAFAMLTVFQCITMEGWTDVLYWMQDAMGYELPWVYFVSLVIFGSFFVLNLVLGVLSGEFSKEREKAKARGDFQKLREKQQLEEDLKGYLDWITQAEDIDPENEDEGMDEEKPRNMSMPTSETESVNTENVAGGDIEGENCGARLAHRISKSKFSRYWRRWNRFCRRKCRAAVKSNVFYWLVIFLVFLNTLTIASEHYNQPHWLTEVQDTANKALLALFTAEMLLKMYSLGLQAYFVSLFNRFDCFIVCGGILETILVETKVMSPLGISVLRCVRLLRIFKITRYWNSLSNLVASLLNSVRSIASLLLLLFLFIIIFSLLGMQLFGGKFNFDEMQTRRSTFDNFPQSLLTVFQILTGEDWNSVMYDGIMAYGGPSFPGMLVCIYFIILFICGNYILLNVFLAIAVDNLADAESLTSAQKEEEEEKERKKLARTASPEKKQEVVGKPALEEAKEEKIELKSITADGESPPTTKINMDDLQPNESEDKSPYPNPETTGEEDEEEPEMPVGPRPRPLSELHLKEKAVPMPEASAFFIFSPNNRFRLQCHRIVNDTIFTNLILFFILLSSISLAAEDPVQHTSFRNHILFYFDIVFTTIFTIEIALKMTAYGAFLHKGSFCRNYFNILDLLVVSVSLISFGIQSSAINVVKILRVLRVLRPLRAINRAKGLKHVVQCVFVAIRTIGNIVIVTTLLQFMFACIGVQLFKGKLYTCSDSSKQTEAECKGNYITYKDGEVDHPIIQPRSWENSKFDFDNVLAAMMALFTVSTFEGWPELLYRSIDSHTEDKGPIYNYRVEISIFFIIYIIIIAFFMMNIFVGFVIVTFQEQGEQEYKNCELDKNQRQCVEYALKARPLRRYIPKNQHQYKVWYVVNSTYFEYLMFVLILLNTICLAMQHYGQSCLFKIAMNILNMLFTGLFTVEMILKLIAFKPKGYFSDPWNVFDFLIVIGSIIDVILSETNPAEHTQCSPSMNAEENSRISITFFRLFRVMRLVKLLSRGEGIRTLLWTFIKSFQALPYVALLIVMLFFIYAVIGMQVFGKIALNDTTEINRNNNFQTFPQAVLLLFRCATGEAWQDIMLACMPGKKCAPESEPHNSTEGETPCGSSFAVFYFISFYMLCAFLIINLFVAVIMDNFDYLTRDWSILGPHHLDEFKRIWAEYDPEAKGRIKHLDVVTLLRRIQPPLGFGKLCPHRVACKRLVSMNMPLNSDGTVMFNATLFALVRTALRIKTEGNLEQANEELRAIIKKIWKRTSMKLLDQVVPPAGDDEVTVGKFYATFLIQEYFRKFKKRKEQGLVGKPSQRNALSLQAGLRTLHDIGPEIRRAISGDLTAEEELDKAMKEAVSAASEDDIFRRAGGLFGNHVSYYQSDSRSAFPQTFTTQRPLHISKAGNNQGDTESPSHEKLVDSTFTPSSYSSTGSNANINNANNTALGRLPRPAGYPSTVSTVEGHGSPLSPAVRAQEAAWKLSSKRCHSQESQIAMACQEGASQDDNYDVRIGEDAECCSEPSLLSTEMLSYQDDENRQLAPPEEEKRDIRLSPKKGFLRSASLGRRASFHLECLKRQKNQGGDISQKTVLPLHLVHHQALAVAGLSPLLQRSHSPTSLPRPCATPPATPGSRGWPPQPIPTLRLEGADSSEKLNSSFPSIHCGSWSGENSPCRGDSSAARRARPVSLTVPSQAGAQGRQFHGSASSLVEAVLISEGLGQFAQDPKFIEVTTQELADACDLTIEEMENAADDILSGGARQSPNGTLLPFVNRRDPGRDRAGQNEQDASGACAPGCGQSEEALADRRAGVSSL
T1 sequence (P13806 27-960 partner limits assumed, other chains not shown): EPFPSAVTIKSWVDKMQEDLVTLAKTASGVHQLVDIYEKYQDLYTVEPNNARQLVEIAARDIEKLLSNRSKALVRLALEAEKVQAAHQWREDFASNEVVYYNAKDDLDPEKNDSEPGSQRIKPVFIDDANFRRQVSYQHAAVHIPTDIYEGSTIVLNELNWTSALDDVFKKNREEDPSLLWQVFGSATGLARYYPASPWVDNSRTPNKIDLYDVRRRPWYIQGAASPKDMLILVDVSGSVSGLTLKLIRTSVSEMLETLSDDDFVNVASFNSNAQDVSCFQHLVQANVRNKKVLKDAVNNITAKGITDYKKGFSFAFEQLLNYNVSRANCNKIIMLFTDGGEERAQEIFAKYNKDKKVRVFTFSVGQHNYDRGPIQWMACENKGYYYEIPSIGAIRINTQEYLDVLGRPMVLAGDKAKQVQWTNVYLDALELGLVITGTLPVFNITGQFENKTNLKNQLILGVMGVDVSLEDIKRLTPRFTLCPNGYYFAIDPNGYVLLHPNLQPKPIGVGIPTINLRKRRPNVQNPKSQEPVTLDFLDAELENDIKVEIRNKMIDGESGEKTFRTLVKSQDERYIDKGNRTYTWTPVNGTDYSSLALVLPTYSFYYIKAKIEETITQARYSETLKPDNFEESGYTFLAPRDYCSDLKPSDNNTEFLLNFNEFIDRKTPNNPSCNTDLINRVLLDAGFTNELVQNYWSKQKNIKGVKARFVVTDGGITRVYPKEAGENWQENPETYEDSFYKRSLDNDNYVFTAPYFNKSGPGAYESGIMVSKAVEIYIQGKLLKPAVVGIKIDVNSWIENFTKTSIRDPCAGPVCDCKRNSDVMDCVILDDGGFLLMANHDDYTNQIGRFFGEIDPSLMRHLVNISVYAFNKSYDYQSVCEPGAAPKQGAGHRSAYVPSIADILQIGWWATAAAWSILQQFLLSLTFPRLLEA
T1 sequence (P13806 961-1106 partner limits assumed, other chains not shown): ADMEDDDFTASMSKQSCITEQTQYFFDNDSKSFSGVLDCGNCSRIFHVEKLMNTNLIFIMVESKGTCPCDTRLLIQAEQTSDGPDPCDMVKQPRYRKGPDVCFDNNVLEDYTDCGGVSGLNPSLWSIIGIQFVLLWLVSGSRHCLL
Kind of test: Whole cell voltage clamp of L-type Ca2+ current in single ventricular myocytes. It counts as cell-based, rabbit.

For another test, the system named is protein kinase A (PKA). Conditions: cited from earlier work.
The target in test [3] is CaM kinase (Oryctolagus cuniculus, UniProt O77708). As to the kind of experiment: In vitro CaM kinase activity in left ventricular tissue homogenate. The format is biochemical, rabbit. The settings on record: LV tissue homogenate; 0-100 μmol/l. The method, then: FIG. 5. Effects of KN-93 and KN-92 on CaM kinase activity in vitro. CaM kinase activity in left ventricular tissue homogenate was assayed as described in Example 5, Experimental Methods. […] The solid line represents a fit to the KN-93 data using the Hill equation.
Sequence of CaM kinase (Oryctolagus cuniculus, UniProt O77708) (O77708 2-533): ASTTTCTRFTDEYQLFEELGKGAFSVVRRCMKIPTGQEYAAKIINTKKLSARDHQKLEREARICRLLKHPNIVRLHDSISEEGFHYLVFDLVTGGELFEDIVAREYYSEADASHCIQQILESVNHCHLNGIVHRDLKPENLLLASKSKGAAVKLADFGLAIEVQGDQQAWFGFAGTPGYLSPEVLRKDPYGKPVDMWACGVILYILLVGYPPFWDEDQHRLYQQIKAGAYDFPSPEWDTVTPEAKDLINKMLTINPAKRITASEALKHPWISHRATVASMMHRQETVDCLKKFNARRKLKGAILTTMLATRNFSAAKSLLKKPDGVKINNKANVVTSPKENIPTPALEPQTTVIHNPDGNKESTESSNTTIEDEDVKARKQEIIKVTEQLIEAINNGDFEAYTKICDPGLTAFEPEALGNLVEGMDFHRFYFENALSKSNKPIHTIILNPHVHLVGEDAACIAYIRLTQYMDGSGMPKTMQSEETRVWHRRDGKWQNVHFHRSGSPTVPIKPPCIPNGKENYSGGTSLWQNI
Left ventricular homogenate was prepared as follows: after removal of the heart, it was placed in nominally Ca^2+ free ice-cold HEPES-buffered Tyrode's solution. One to two grams of the left ventricular free wall was cut away, coarsely minced, and suspended in 5-10 ml of cold homogenization buffer (mmol/l: 20 PIPES, 1 EDTA, 1 EGTA, 2 DTT, 10 sodium pyrophosphate, and 50-100 μg/ml leupeptin) at pH 7.0. Tissue suspension was homogenized at 4° C. using 3-10 sec bursts of a Polytron with 30 sec pauses inbetween bursts. The homogenate was then centrifuged at ˜10,000×g for 20 min at 4° C. using a JA-20 rotor. The supemate was removed and used directly in the assay. Protein concentration was measured by the method of Bradford, using BSA as the standard.
Assay of CaM kinase activity was performed essentially as described by Waldmann et al. with a few modifications. […] Calcium/calmodulin-dependent phosphorylation of the autocamtide 3 substrate was then quantitated as described. Calcium/calmodulin-independent CaM kinase activity was quantitated as described above, but Ca^2+ was omitted from the assay solution. […]

`COc1ccc(S(=O)(=O)Nc2ccccc2CN(C)CC=Cc2ccc(Cl)cc2)cc1` [KN-92, 2-N-(4-methoxybenzenesulfonyl)-amino-N-(4-chlorocinnamyl)N-methylbenzylamine]: the “effects on protein kinase C (PKC)” value in the test on protein kinase C (PKC) is “neither KN-93 nor KN-92 have appreciable effects”. Besides, in the test on isolated rabbit hearts (clofilium 7.5 μM), the “EADs in response to clofilium (hearts with EADs/hearts)” value is reported as 10/11 and the “multiple EADs (hearts with multiple EADs/hearts)” value was 7/11. Further, the “left ventricular developed pressure (LVDP) following clofilium” value in the test with isolated rabbit hearts (clofilium 7.5 μmole/l) is reported as “increased significantly”. Besides, the “CaM kinase inhibitory activity” value in the test with CaM kinase [1] is listed as “without CaM kinase inhibitory activity”. Also, the “apparent voltage dependence of ICa activation” value in test [2] was “Neither KN-92 or KN-93 shifted”. In test [2] (0.5 μmol/l external application, cells dialyzed with BAPTA), the “steady state inhibition of peak ICa” value stood at 36.2±1.9%. Moreover, the “effects on protein kinase A (PKA)” value in the test on protein kinase A (PKA) is reported as “neither KN-93 nor KN-92 have appreciable effects”. In addition, the “inhibition of CaM kinase activity” value against CaM kinase [3] is reported as “did not cause appreciable inhibition”.
